Measured values taken from ChEMBL document CHEMBL4177594, “Design, synthesis, and evaluation of salicyladimine derivatives as multitarget-directed ligands against Alzheimer's disease” (Bioorg Med Chem, 2017).
Calls of active or inactive are those of the source. The calls are words filed in the database; no cut-off is given here.

What was measured:
PC-12 [1] = assay: Neuroprotective activity against H2O2-induced apoptosis in rat PC12 cells assessed as late apoptosis cells level at 25 uM after 24 hrs by Annexin V/FITC/propidium iodide staining-based flow cytometry (reference value: 1.9%); format: functional
[2] = Antioxidant activity assessed as ABTS radical scavenging activity at 25 uM after 6 mins; format: functional
[3] = Metal chelating activity assessed as compound-Fe3+ complex formation after 30 mins by UV-Vis spectrophotometry based Job's plot
in vitro = assay: in vitro; set-up: dose or concentration left out as unconfirmed; conditions: PAMPA
Description: Permeability of the compound at 100 mg/ml after 16 hrs by BBB-PAMPA method

PC-12 [4] = assay: Antioxidant activity against H2O2-induced oxidative stress in rat PC12 cells assessed as reduction in intracellular ROS levels after 48 hrs by DCFH-DA staining based flow cytometry; format: functional, cell-based
PC-12 [5] = assay: Neuroprotective activity against H2O2-induced cytotoxicity in rat PC12 cells assessed as increase in cell viability at 6.25 to 25 uM preincubated for 24 hrs followed by H2O2 addition and measured after 24 hrs by MTT assay; format: functional, cell-based
PC-12 [6] = assay: Neuroprotective activity against H2O2-induced apoptosis in rat PC12 cells assessed as necrosis cells level at 50 uM after 24 hrs by Annexin V/FITC/propidium iodide staining-based flow cytometry (reference value: 0.1%); format: functional
PC-12 [7] = assay: Neuroprotective activity against H2O2-induced apoptosis in rat PC12 cells assessed as viable cells level at 6.25 uM after 24 hrs by Annexin V/FITC/propidium iodide staining-based flow cytometry (reference value: 96.2%); format: functional
PC-12 [8] = assay: Neuroprotective activity against H2O2-induced apoptosis in rat PC12 cells assessed as apoptotic cells at 6.25 uM after 24 hrs by Annexin V/FITC/propidium iodide staining-based flow cytometry (reference value: 52.3%); format: functional
PC-12 [9] = assay: Neuroprotective activity against H2O2-induced apoptosis in rat PC12 cells assessed as early apoptosis cells level at 50 uM after 24 hrs by Annexin V/FITC/propidium iodide staining-based flow cytometry (reference value: 1.8%); format: functional
Homo sapiens = species: Homo sapiens; assay: Selectivity index, ratio of IC50 for human MAO-A to IC50 for human MAO-B
PC-12 [10] = assay: Neuroprotective activity against H2O2-induced apoptosis in rat PC12 cells assessed as necrosis cells level at 6.25 uM after 24 hrs by Annexin V/FITC/propidium iodide staining-based flow cytometry (reference value: 0.1%); format: functional
PC-12 [11] = assay: Neuroprotective activity against H2O2-induced apoptosis in rat PC12 cells assessed as necrosis cells level at 12.5 uM after 24 hrs by Annexin V/FITC/propidium iodide staining-based flow cytometry (reference value: 0.1%); format: functional
[12] = biological target: T1, Amine oxidase [flavin-containing] B (Homo sapiens, UniProt P27338); assay: Inhibition of human MAO-B using p-tyramine as substrate preincubated for 15 mins followed by substrate addition measured after 20 mins by fluorescence-based Amplex Red MAO assay
T1 sequence (P27338 whole entry): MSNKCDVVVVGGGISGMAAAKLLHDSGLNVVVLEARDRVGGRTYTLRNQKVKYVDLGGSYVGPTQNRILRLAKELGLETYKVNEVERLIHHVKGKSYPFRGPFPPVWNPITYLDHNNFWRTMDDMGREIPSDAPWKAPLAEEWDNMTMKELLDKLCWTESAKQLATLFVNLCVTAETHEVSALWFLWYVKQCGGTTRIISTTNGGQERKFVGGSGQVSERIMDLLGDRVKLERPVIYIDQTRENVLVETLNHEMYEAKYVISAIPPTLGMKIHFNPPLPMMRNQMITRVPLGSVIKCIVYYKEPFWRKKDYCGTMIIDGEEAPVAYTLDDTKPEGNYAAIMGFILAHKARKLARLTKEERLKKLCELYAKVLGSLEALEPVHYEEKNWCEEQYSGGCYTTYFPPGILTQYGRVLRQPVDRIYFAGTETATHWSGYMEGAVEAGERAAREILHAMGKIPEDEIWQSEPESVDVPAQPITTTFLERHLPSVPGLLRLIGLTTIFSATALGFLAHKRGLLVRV

PC-12 [13] = assay: Neuroprotective activity against H2O2-induced apoptosis in rat PC12 cells assessed as early apoptosis cells level at 6.25 uM after 24 hrs by Annexin V/FITC/propidium iodide staining-based flow cytometry (reference value: 1.8%); format: functional
PC-12 [14] = assay: Neuroprotective activity against H2O2-induced apoptosis in rat PC12 cells assessed as early apoptosis cells level at 25 uM after 24 hrs by Annexin V/FITC/propidium iodide staining-based flow cytometry (reference value: 1.8%); format: functional
[15] = Metal chelating activity assessed as compound-Cu2+ complex formation after 30 mins by UV-Vis spectrophotometry based Job's plot
PC-12 [16] = assay: Neuroprotective activity against H2O2-induced apoptosis in rat PC12 cells assessed as apoptotic cells at 50 uM after 24 hrs by Annexin V/FITC/propidium iodide staining-based flow cytometry (reference value: 52.3%); format: functional
PC-12 [17] = assay: Neuroprotective activity against H2O2-induced apoptosis in rat PC12 cells assessed as necrosis cells level at 25 uM after 24 hrs by Annexin V/FITC/propidium iodide staining-based flow cytometry (reference value: 0.1%); format: functional
PC-12 [18] = assay: Neuroprotective activity against H2O2-induced apoptosis in rat PC12 cells assessed as late apoptosis cells level at 12.5 uM after 24 hrs by Annexin V/FITC/propidium iodide staining-based flow cytometry (reference value: 1.9%); format: functional
[19] = biological target: Amyloid-beta precursor protein (Homo sapiens) (UniProt P05067); assay: Inhibition of self-induced aggregation of amyloid beta (1 to 42 residues) (unknown origin) at 25 uM incubated for 48 hrs by Thioflavin T fluorescence assay relative to control
PC-12 [20] = assay: Neuroprotective activity against H2O2-induced apoptosis in rat PC12 cells assessed as apoptotic cells at 12.5 uM after 24 hrs by Annexin V/FITC/propidium iodide staining-based flow cytometry (reference value: 52.3%); format: functional
PC-12 [21] = assay: Neuroprotective activity against 6-OHDA-induced toxicity in rat PC12 cells assessed as increase in cell viability at 10 to 25 uM pretreated for 24 hrs followed by 6-OHDA challenge measured after 24 hrs by MTT assay; format: functional
PC-12 [22] = assay: Neuroprotective activity against H2O2-induced apoptosis in rat PC12 cells assessed as viable cells level at 25 uM after 24 hrs by Annexin V/FITC/propidium iodide staining-based flow cytometry (reference value: 96.2%); format: functional
PC-12 [23] = assay: Cytotoxicity against rat PC12 cells at 25 uM after 24 hrs by MTT assay; format: cell-based; conditions: pc-12, 24 h
[24] = Metal chelating activity assessed as compound-Fe2+ complex formation after 30 mins by UV-Vis spectrophotometry based Job's plot
[25] = Antioxidant activity assessed as DPPH radical scavenging activity after 30 mins; format: functional
PC-12 [26] = assay: Neuroprotective activity against H2O2-induced apoptosis in rat PC12 cells assessed as viable cells level at 50 uM after 24 hrs by Annexin V/FITC/propidium iodide staining-based flow cytometry (reference value: 96.2%); format: functional
PC-12 [27] = assay: Neuroprotective activity against H2O2-induced apoptosis in rat PC12 cells assessed as early apoptosis cells level at 12.5 uM after 24 hrs by Annexin V/FITC/propidium iodide staining-based flow cytometry (reference value: 1.8%); format: functional

Chain of Amyloid-beta precursor protein (Homo sapiens) (P05067 whole entry, the tested form may be a part): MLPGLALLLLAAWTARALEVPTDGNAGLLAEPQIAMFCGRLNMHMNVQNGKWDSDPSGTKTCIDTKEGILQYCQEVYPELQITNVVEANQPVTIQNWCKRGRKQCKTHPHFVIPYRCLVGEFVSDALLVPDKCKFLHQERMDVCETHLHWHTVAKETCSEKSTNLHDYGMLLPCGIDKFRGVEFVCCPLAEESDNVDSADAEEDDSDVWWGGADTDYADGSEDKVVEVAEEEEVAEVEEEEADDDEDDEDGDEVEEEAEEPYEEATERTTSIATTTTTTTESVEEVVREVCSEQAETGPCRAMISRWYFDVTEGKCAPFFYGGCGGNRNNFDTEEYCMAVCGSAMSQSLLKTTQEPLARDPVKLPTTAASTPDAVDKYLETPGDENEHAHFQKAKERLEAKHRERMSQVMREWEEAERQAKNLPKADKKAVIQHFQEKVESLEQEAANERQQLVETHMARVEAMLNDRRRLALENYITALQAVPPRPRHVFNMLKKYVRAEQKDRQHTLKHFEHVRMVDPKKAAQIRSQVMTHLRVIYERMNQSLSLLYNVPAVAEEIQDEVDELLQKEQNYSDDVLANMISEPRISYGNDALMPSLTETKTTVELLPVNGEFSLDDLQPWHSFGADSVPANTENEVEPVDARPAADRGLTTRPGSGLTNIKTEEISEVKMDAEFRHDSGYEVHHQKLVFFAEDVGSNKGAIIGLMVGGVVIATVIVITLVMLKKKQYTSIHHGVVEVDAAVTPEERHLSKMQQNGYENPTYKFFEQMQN

log K [3]: 6.19 | Papp at 16 h (in vitro): 5.75 ×10⁻⁶ cm/s | Ratio IC50 (Homo sapiens): > 57.8 | IC50 [12]: 1.73 µM | log K [15]: 8.01 | inhibition [19]: 91.3% | log K [24]: 6.3 | IC50 [25]: 43.4 µM
SMILES: Oc1ccc(/C=N/c2ccc(OCc3ccccc3)cc2)c(O)c1O
Activity (PC-12 [1]): 2.7% | Activity (umolequiv/umol) [2]: 0.67 | Activity (PC-12 [4]): Dose-dependent effect | Activity (PC-12 [5]): Active | Activity (PC-12 [6]): 3% | Activity (PC-12 [7]): 60.6% | Activity (PC-12 [8]): 38.6% | Activity (PC-12 [9]): 3.7% | Activity (PC-12 [10]): 0.8% | Activity (PC-12 [11]): 0.4% | Activity (PC-12 [13]): 26.7% | Activity (PC-12 [14]): 8.5% | Activity (PC-12 [16]): 6.1% | Activity (PC-12 [17]): 1.1% | Activity (PC-12 [18]): 4.2% | Activity (PC-12 [20]): 29.9% | Activity (PC-12 [21]): 65.9 - 75.4% | Activity (PC-12 [22]): 87.7% | Activity (PC-12 [23]): Non-Toxic | Activity (PC-12 [26]): 91.1% | Activity (PC-12 [27]): 25.7%
